What was measured:
[1] = test system: PKD1^flox/flox / ubiquitous CreER^T2 mice; assay: In vivo ADPKD mice model in combination with tolvaptan (meta-analysis of two experiments)
Description: The ADPKD mice model is based on PKD1^flox/flox (with lox sites flanking exons 2-4)/ubiquitous CreER^T2 mice in which the PKD1 gene is ubiquitously knock-out by the activation of the Cre recombinase by treatment of the mice with Tamoxifen at day 12 after birth (in nursing female). Homozygotous knock-out of the PKD1 gene leads to the rapid formation of kidney cysts mimicking to a certain extend the development of ADPKD disease in human.
Before experimentations, mouse colonies of PKD1^flox/flox (with lox sites flanking exons 2-4)/ubiquitous CreER^T2 were maintained at Charles River Laboratories (France). To induce Cre recombinase activity, tamoxifen (60 mg/kg in sunflower oil) was delivered in nursing females by intraperitoneal injection at postnatal day 12. Subsequently, tamoxifen-containing milk was administered to pups. Treatments started at 4 weeks of age for 11 weeks. Tolvaptan was incorporated in diet (0.1%) and given alone or in combination with Cpd 2, administered at 250 mg/kg, q. d., p.o. At initiation of treatment and on a regular basis during the study, serum was collected to determine levels of blood urea nitrogen (BUN) on a Spotchem bioanalyzer. At necropsy, kidneys were collected and weighed to determine kidney weight/body weight ratio.
Two independent experiments were conducted.
A two-way ANOVA with Dunnett post-hoc multiple comparisons of all experimental groups versus the diseased group has been applied to the log Fold Change (log FC) of BUN ([…]) at sacrifice (Week 15) versus BUN at Week 4 as function of Group and Study.
The mean fold change at week 15 (sacrifice) vs week 4 (treatment initiation) is calculated, assuming a 100% change for the diseased group (untreated).

wt CFTR (CFTR channel) = target: T1, wt CFTR (CFTR channel) (Homo sapiens, UniProt P13569); assay: TECC assay on normal primary human bronchial epithelial (HBE) cells; format: cell-based; conditions: 0.3 μM forskolin
T1 construct: evaluate compounds on normal primary bronchial epithelial cells (HBE cells); endogenous in cells; host or cells: normal primary human bronchial epithelial (HBE) cells from donor lungs
Method: The TECC assay is used to evaluate compounds on normal primary bronchial epithelial cells (HBE cells), which are closer to physiological conditions
Bronchial epithelial cells isolated from transplanted lungs from normal (wt CFTR) were isolated from lungs obtained from donors undergoing a planned transplantation. These primary cells were cultured directly on type IV collagen-coated polycarbonate Transwell supports with a diameter of 6.5 mm and pore size of 0.4 μm (Costar, #3397) for 18 to 25 days in air liquid (ali) interface essentially as previously described for TECC. (Fulcher et al. 2005)
Trans-epithelial clamp circuit (TECC) recordings were performed using the TECC instrument developed and sold by EP Design (Bertem, Belgium). During the recording, the epithelial cells were bathed in a NaCl-Ringer solution (120 mM NaCl, 20 mM HEPES, 1.2 mM CaCl2, 1.2 mM MgCl2, 0.8 mM KH2PO4, 0.8 mM K2HPO4, 5 mM glucose, pH 7.4) on both the basolateral (640 μl) and the apical side (160 μl) and kept at 37° C. Apical amiloride was used to inhibit the endogenous ENaC currents (100 μM) while forskolin (0.3 μM) was applied on both the apical and basolateral sides to stimulate CFTR. All triggers and compounds used during the experiment were first dissolved in DMSO to a 1000× concentrated solution, just prior to treatment a 10× stock was prepared in the NaCl-Ringer solution which was used for addition of the correct concentration of trigger and or compound during the experiment. Cells were treated with test compounds for 24 hours before recording and this treatment was repeated in the TECC buffer prior to the electrophysiological recording. Measurements were done during a 20-min timeframe with recordings every 2 min. The transepithelial potential (PD) and transepithelial resistance (Rt) were measured in an open circuit and transformed to Ieq using Ohm's law. The maximal increase in Ieq (Δ Ieq) was used as a measure for the increased CFTR activity.

wild type human CFTR = target: T2, wild type human CFTR (Homo sapiens, UniProt P13569); assay: Yellow Fluorescent Protein (YFP) halide assay in wild type CFTR (HEK293 cells); format: cell-based; conditions: HEK293 cells transfected with wild type human CFTR; 24 h incubation; 10 μM forskolin; read-out: EC50 of inhibition of WT CFTR
T2 construct: expressed in transfected cells; host or cells: HEK293
Method: To evaluate the ability of a test compound to inhibit wild type CFTR, a YFP halide assay using HEK293 cells transfected with wild type human CFTR was developed. (Galietta, Jayaraman, and Verkman 2001) Cells were incubated during 24 h with a dose range of test compound and the resulting wild type CFTR activity was plotted to obtain the EC50.
Test compounds were also added together with forskolin to wild type CFTR expressing cells in order to fully active the available CFTR at the plasma membrane and determine accurately the inhibition of the channel activity.
HEK293 cells were transfected with 10 to 80 ng of wild type CFTR and 20 ng of plasmid encoding YFP (H148Q/I152L/F47L) using jetPEI (Polyplus transfection). Directly after transfection, cells were seeded in black 96-well plates coated with Poly-D-lysine at a density of 70,000 cells per well. The next day, cells were treated with corrector(s) for 24 h. After this incubation period, cells were washed twice with DPBS with Ca^2+ and Mg^2+. Subsequently, cells were treated with 10 μM forskolin and the desired concentration of potentiator in a volume of 40 μl and incubated at room temperature for 10 min, a time point optimized in previous experiments resulting in a good window (positive control/negative control >2) and signal to background ratio. YFP fluorescence was measured using an EnVision plate reader (PerkinElmer). […]

T1 sequence (P13569 whole entry): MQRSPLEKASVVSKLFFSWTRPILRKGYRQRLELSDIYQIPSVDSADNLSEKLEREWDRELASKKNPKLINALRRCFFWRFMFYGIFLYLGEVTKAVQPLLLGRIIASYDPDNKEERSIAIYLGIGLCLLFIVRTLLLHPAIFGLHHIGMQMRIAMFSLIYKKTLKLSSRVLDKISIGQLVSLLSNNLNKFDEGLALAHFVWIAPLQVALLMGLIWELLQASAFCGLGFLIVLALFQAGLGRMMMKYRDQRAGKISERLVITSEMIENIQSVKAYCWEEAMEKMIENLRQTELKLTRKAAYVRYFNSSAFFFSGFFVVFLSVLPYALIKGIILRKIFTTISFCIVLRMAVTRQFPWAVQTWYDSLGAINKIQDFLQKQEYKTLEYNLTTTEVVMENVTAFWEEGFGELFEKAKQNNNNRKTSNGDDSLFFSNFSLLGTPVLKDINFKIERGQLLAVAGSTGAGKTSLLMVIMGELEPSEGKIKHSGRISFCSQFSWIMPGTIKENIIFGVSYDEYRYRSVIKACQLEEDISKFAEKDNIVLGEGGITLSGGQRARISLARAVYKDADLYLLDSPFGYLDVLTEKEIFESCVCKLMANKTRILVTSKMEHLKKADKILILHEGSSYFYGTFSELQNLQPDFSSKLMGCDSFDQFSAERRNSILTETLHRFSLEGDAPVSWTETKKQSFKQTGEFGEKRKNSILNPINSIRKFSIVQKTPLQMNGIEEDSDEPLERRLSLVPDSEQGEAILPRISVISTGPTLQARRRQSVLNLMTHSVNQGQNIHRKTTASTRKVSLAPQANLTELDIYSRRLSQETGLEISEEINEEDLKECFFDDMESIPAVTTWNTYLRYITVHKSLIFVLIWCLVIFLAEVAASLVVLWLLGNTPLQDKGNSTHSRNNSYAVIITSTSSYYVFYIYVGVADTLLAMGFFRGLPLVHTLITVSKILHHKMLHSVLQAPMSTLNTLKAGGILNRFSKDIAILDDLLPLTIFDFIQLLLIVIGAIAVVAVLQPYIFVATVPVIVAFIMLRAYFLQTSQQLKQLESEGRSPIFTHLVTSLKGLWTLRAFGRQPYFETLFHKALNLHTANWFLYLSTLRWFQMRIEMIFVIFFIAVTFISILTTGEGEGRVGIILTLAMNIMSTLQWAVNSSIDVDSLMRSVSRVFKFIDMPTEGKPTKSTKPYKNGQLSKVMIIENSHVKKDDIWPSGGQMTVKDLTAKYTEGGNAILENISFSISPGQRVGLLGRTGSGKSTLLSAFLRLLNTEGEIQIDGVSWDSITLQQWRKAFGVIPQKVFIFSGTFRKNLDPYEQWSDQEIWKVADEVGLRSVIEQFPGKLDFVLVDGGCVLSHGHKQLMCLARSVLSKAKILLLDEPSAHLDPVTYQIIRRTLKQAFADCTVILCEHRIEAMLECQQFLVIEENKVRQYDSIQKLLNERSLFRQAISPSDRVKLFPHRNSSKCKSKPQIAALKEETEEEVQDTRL
T2 sequence (P13569 whole entry): as above

| Structure (SMILES) | BUN Mean fold changes on week 15 vs week 4 ([1]; Cpd 2 250 mg/kg q.d. p.o., Tolvaptan 0.1% in diet, treatment from 4 weeks of age for 11 weeks) | BUN fold change vs the diseased group (in words) ([1]; administered from week 4 to week 15) | BUN % of Mean Diseased fold change ([1]; week 15 vs week 4, diseased group = 100, Cpd 2 250 mg/kg q.d. p.o., Tolvaptan 0.1% in diet) | pIC50 (wt CFTR (CFTR channel)) | IC50 (wt CFTR (CFTR channel); read-out: IC50 value (resulting from pIC50) (converted)) | EC50 (wild type human CFTR) |
| --- | --- | --- | --- | --- | --- | --- |
| Cc1ccccc1C(=O)Nc1ccc(C(=O)N2CCCC(O)c3cc(Cl)ccc32)c(C)c1 (stereo not drawn) [Tolvaptan, tolvaptan] | 1.889 | did not result in a significant fold change | 80.7% | – | – | – |
| COC1CCN(C2CCN(c3cc(C(=O)NS(=O)(=O)N(C)C)nc4c3c(C3CCC3)nn4-c3ccc(F)cc3)CC2)CC1 [Cpd 2] | – | – | – | 7.50 | 32 nM | 102 nM |

— patent US12383544B2, “Methods for the treatment of polycystic kidney disease” (Galapagos NV, priority 2019, dated 2025)
